Structures can show the parent of a compound that is named as a salt. Where two headings read alike, the source gives them in different places.
Key:
[1] = system: Human colon tumor cells (Colo205); test: Cell growth inhibition assay (CellTiter-Glo), Colo205; assay type: cell-based
In short: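 Colo205 (and SK-MEL-28) cells in RPMI with 10% FBS were exposed to 10-point 1:3 serial dilutions of compound at 0.2% final DMSO for 3 days at 37 °C. Total ATP, a surrogate for cell number, was read by CellTiter-Glo luminescence, with % growth inhibition relative to DMSO-treated wells.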

[2] = molecular target: T1, BRAFV600E full-length (amino acids 2-766) (Homo sapiens, UniProt P15056, V600E); test: B-Raf Accelerated MEK ATPase assay (BRAMA); assay type: biochemical; conditions: categorized
T1 construct: His6-tagged BRAFV600E full-length (amino acids 2-766); His6; made in house; host or cells: baculovirus expression system (insect cells)
T1 sequence (P15056 2-766 V600E): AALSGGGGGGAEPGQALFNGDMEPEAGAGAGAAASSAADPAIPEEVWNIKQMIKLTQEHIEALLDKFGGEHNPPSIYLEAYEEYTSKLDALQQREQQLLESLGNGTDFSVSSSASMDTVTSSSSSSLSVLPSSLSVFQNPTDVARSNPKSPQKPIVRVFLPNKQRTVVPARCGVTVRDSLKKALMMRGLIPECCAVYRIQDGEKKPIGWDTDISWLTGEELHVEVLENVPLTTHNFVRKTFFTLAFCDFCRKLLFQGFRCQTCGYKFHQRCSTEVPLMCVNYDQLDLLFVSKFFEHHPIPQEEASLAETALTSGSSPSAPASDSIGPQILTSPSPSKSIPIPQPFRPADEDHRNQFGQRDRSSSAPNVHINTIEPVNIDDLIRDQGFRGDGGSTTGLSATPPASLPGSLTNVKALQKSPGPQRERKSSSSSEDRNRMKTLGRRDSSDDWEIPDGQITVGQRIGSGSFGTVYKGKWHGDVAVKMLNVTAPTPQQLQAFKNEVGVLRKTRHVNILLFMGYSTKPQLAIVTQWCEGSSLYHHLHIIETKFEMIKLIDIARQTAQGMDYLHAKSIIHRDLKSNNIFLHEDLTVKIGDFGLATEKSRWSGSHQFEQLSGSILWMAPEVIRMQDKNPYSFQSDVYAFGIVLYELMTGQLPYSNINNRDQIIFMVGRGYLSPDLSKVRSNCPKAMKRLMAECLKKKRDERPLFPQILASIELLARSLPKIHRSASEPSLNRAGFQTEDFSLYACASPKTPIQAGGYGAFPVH
In short: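 Coupled-enzyme readout: ADP generated by MEK-mediated ATP hydrolysis, uncoupled from ERK phosphorylation, is linked to NADH oxidation through pyruvate kinase and lactate dehydrogenase.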

[3] = system: Human melanoma cancer cells (SK-MEL-28); test: Cell growth inhibition assay (CellTiter-Glo), SK-MEL-28; assay type: cell-based
[4] = COLO 205, Table 2b, later runs, average for the one or more runs, categorized, read-out: IC50 for Colo205
[5] = B-Raf pIC50, Table 1b, later runs, average pIC50 for the one or more runs
[6] = SK-MEL-28, Table 3b, later runs, average for the one or more runs, categorized, read-out: IC50 for SK-MEL-28
[7] = COLO 205, 72 h, Table 2a, 3 days incubation, read-out: Activity in Colo205 Tumor Cells
[8] = B-Raf Activity, Table 1a, highest pIC50 for the one or more runs
[9] = Table 1b, later runs, average pIC50 for the one or more runs, read-out: B-Raf pIC50 (converted)
[10] = SK-MEL-28, 72 h, Table 3a, 3 days incubation, read-out: Activity in SK-MEL-28 Tumor Cells

SMILES: Cn1ccc(S(=O)(=O)Nc2cccc(-c3nc(C4CCOCC4)sc3-c3ccnc(N)n3)c2F)c1 [Example 285, N-{3-[5-(2-amino-4-pyrimidinyl)-2-(tetrahydro-2H-pyran-4-yl)-1,3-thiazol-4-yl]-2-fluorophenyl}-1-methyl-1H-pyrrole-3-sulfonamide hydrochloride]
- IC50 [1, 4]: 100 to 1000 nM
- IC50 [2, 5]: 31.6 to 1000 nM
- IC50 [3, 6]: 1000 to 10000 nM

SMILES: O=S(=O)(Nc1cccc(-c2nc(N3CCOCC3)sc2-c2ccncn2)c1Cl)c1ccoc1 [Example 269, N-{2-chloro-3-[2-(4-morpholinyl)-5-(4-pyrimidinyl)-1,3-thiazol-4-yl]phenyl}-3-furansulfonamide]
- IC50 [1, 4]: < 100 nM
- IC50 [2, 5]: ≤ 3.16 nM
- IC50 [3, 6]: 100 to 1000 nM

SMILES: CC(=O)N1CCC(Nc2nccc(-c3sc(C(C)C)nc3-c3ccc(F)c(NS(=O)(=O)c4cc(F)ccc4F)c3)n2)CC1 [Example 77, N-{5-[5-{2-[(1-Acetyl-4-piperidinyl)amino]-4-pyrimidinyl}-2-(1-methylethyl)-1,3-thiazol-4-yl]-2-fluorophenyl}-2,5-difluorobenzenesulfonamide]
- IC50 [1, 7]: < 100 nM
- IC50 [1, 4]: < 100 nM
- IC50 [2, 8]: < 100 nM
- IC50 [2, 9]: 3.16 to 31.6 nM
- IC50 [3, 10]: < 100 nM
- IC50 [3, 6]: < 100 nM

SMILES: CC(C)(C)c1nc(-c2cccc(NS(=O)(=O)c3c(F)cccc3F)c2F)c(-c2ccnc(NC3CCN(S(C)(=O)=O)CC3)n2)s1 [Example 78, N-{3-[2-(1,1-Dimethylethyl)-5-(2-{[1-(methylsulfonyl)-4-piperidinyl]amino}-4-pyrimidinyl)-1,3-thiazol-4-yl]-2-fluorophenyl}-2,6-difluorobenzenesulfonamide]
- IC50 [1, 7]: < 100 nM
- IC50 [1, 4]: < 100 nM
- IC50 [2, 8]: < 100 nM
- IC50 [2, 5]: ≤ 3.16 nM
- IC50 [3, 10]: < 100 nM
- IC50 [3, 6]: < 100 nM

SMILES: CC(C)(C)c1nc(-c2cccc(NS(=O)(=O)c3cc(F)ccc3F)c2F)c(-c2ccnc(NCCN3CCCC3=O)n2)s1 [Example 97, N-{3-[2-(1,1-Dimethylethyl)-5-(2-{[2-(2-oxo-1-pyrrolidinyl)ethyl]amino}-4-pyrimidinyl)-1,3-thiazol-4-yl]-2-fluorophenyl}-2,5-difluorobenzenesulfonamide]
- IC50 [1, 7]: < 100 nM
- IC50 [1, 4]: 100 to 1000 nM
- IC50 [2, 8]: < 100 nM
- IC50 [2, 5]: ≤ 3.16 nM
- IC50 [3, 10]: < 100 nM
- IC50 [3, 6]: < 100 nM

SMILES: CC(C)CNc1nccc(-c2sc(C(C)C)nc2-c2ccc(F)c(NS(=O)(=O)c3cc(F)ccc3F)c2)n1 [Example 121]
- IC50 [1, 7]: 100 to 1000 nM
- IC50 [1, 4]: 100 to 1000 nM
- IC50 [2, 8]: < 100 nM
- IC50 [2, 9]: 3.16 to 31.6 nM
- IC50 [3, 10]: 100 to 1000 nM
- IC50 [3, 6]: 100 to 1000 nM

SMILES: CCOCCNc1nccc(-c2sc(C(C)C)nc2-c2ccc(F)c(NS(=O)(=O)c3c(F)cccc3F)c2)n1 [Example 4, N-{5-[5-(2-{[2-(Ethyloxy)ethyl]amino}-4-pyrimidinyl)-2-(1-methylethyl)-1,3-thiazol-4-yl]-2-fluorophenyl}-2,6-difluorobenzenesulfonamide]
- IC50 [1, 7]: 100 to 1000 nM
- IC50 [1, 4]: 1000 to 10000 nM
- IC50 [2, 8]: < 100 nM
- IC50 [2, 5]: 31.6 to 1000 nM
- IC50 [3, 10]: 100 to 1000 nM
- IC50 [3, 6]: 100 to 1000 nM

SMILES: COc1c(NS(=O)(=O)c2c(F)cccc2F)cccc1-c1nc(N2CCOCC2)sc1-c1ccnc(NCC(C)C)n1 [Example 47, 2,6-Difluoro-N-{2-(methyloxy)-3-[5-{2-[(2-methylpropyl)amino]-4-pyrimidinyl}-2-(4-morpholinyl)-1,3-thiazol-4-yl]phenyl}benzenesulfonamide]
- IC50 [1, 7]: 100 to 1000 nM
- IC50 [1, 4]: 100 to 1000 nM
- IC50 [2, 8]: < 100 nM
- IC50 [2, 9]: 3.16 to 31.6 nM
- IC50 [3, 10]: 100 to 1000 nM
- IC50 [3, 6]: 100 to 1000 nM

SMILES: CC(C)c1nc(-c2ccc(F)c(NS(=O)(=O)c3cc(F)ccc3F)c2)c(-c2ccnc(NC3CCN(C)CC3)n2)s1 [Example 123]
- IC50 [1, 7]: 100 to 1000 nM
- IC50 [1, 4]: 100 to 1000 nM
- IC50 [2, 8]: < 100 nM
- IC50 [2, 5]: 31.6 to 1000 nM
- IC50 [3, 10]: > 1000 nM
- IC50 [3, 6]: 1000 to 10000 nM

SMILES: CS(=O)(=O)N1CCC(Nc2nccc(-c3sc(C4CCC4)nc3-c3cccc(NS(=O)(=O)c4cc(F)ccc4F)c3F)n2)CC1 [Example 81, N-{3-[2-Cyclobutyl-5-(2-{[1-(methylsulfonyl)-4-piperidinyl]amino}-4-pyrimidinyl)-1,3-thiazol-4-yl]-2-fluorophenyl}-2,5-difluorobenzenesulfonamide]
- IC50 [1, 7]: < 100 nM
- IC50 [1, 4]: < 100 nM
- IC50 [2, 8]: < 100 nM
- IC50 [2, 5]: ≤ 3.16 nM
- IC50 [3, 10]: < 100 nM
- IC50 [3, 6]: < 100 nM

SMILES: Cc1nccc(-c2sc(N3CCS(=O)(=O)CC3)nc2-c2cccc(NS(=O)(=O)c3cc(F)ccc3F)c2F)n1 [Example 253, N-{3-[2-(1,1-dioxido-4-thiomorpholinyl)-5-(2-methyl-4-pyrimidinyl)-1,3-thiazol-4-yl]-2-fluorophenyl}-2,5-difluorobenzenesulfonamide]
- IC50 [1, 4]: < 100 nM
- IC50 [2, 9]: 3.16 to 31.6 nM
- IC50 [3, 6]: < 100 nM

SMILES: Cc1ccc(S(=O)(=O)Nc2cccc(-c3nc(C(C)(C)C)sc3-c3ccnc(N)n3)c2F)cc1 [Example 146]
- IC50 [1, 7]: 100 to 1000 nM
- IC50 [1, 4]: 100 to 1000 nM
- IC50 [2, 8]: < 100 nM
- IC50 [2, 5]: 31.6 to 1000 nM
- IC50 [3, 10]: 100 to 1000 nM
- IC50 [3, 6]: 100 to 1000 nM

SMILES: CC(C)CNc1nccc(-c2sc(C(C)(C)C)nc2-c2cccc(NS(=O)(=O)c3c(F)cccc3F)c2Cl)n1 [Example 19, N-[2-Chloro-3-(2-(1,1-dimethylethyl)-5-{2-[(2-methylpropyl)amino]-4-pyrimidinyl}-1,3-thiazol-4-yl)phenyl]-2,6-difluorobenzenesulfonamide]
- IC50 [1, 7]: < 100 nM
- IC50 [1, 4]: < 100 nM
- IC50 [2, 8]: < 100 nM
- IC50 [2, 9]: 3.16 to 31.6 nM
- IC50 [3, 10]: < 100 nM
- IC50 [3, 6]: < 100 nM

SMILES: CC(C)(C)c1nc(-c2cccc(NS(=O)(=O)c3c(F)cccc3F)c2Cl)c(-c2ccncn2)s1 [Example 237, N-{2-chloro-3-[2-(1,1-dimethylethyl)-5-(4-pyrimidinyl)-1,3-thiazol-4-yl]phenyl}-2,6-difluorobenzenesulfonamide]
- IC50 [1, 4]: < 100 nM
- IC50 [2, 9]: 3.16 to 31.6 nM
- IC50 [3, 6]: < 100 nM

SMILES: CC(C)(C)c1nc(-c2cccc(NS(=O)(=O)c3cc(F)ccc3F)c2F)c(-c2ccnc(CCN3CCS(=O)(=O)CC3)n2)s1 [Example 216]
- IC50 [1, 4]: < 100 nM
- IC50 [2, 8]: < 100 nM
- IC50 [2, 9]: 3.16 to 31.6 nM
- IC50 [3, 6]: < 100 nM

SMILES: Nc1nccc(-c2sc(C3CCCCC3)nc2-c2cccc(NS(=O)(=O)c3cc(F)ccc3F)c2F)n1 [Example 144]
- IC50 [1, 7]: < 100 nM
- IC50 [1, 4]: < 100 nM
- IC50 [2, 8]: < 100 nM
- IC50 [2, 5]: ≤ 3.16 nM
- IC50 [3, 10]: < 100 nM
- IC50 [3, 6]: < 100 nM

SMILES: Nc1nccc(-c2sc(N3CCS(=O)(=O)CC3)nc2-c2cccc(NS(=O)(=O)c3cc(F)ccc3F)c2F)n1 [Example 142]
- IC50 [1, 7]: < 100 nM
- IC50 [1, 4]: < 100 nM
- IC50 [2, 8]: < 100 nM
- IC50 [2, 5]: ≤ 3.16 nM
- IC50 [3, 10]: < 100 nM
- IC50 [3, 6]: < 100 nM

SMILES: Cn1ccc(S(=O)(=O)Nc2cccc(-c3nc(C(C)(C)C)sc3-c3ccnc(N)n3)c2F)c1 [Example 284, N-{3-[5-(2-amino-4-pyrimidinyl)-2-(1,1-dimethylethyl)-1,3-thiazol-4-yl]-2-fluorophenyl}-1-methyl-1H-pyrrole-3-sulfonamide hydrochloride]
- IC50 [1, 4]: 100 to 1000 nM
- IC50 [2, 5]: 31.6 to 1000 nM
- IC50 [3, 6]: 100 to 1000 nM

SMILES: CC(C)c1nc(-c2ccc(F)c(NS(=O)(=O)c3cc(F)ccc3F)c2)c(-c2ccnc(NCCCN3CCCC3=O)n2)s1 [Example 184]
- IC50 [1, 7]: < 100 nM
- IC50 [1, 4]: < 100 nM
- IC50 [2, 8]: < 100 nM
- IC50 [2, 9]: 3.16 to 31.6 nM
- IC50 [3, 10]: < 100 nM
- IC50 [3, 6]: < 100 nM

SMILES: CC(C)(C)c1nc(-c2cccc(NS(=O)(=O)c3c(F)cccc3F)c2F)c(-c2ccnc(CCS(C)(=O)=O)n2)s1 [Example 251, N-[3-(2-(1,1-dimethylethyl)-5-{2-[2-(methylsulfonyl)ethyl]-4-pyrimidinyl}-1,3-thiazol-4-yl)-2-fluorophenyl]-2,6-difluorobenzenesulfonamide]
- IC50 [1, 4]: < 100 nM
- IC50 [2, 9]: 3.16 to 31.6 nM
- IC50 [3, 6]: < 100 nM

SMILES: CC(C)Nc1nccc(-c2sc(N3CCOCC3)nc2-c2cccc(NS(=O)(=O)c3c(F)cccc3F)c2F)n1 [Example 136]
- IC50 [1, 7]: 100 to 1000 nM
- IC50 [1, 4]: 100 to 1000 nM
- IC50 [2, 8]: < 100 nM
- IC50 [2, 9]: 3.16 to 31.6 nM
- IC50 [3, 10]: 100 to 1000 nM
- IC50 [3, 6]: 100 to 1000 nM

SMILES: CC(C)CNc1nccc(-c2sc(C3CCOCC3)nc2-c2cccc(NS(=O)(=O)c3cc(F)ccc3F)c2F)n1 [Example 67, 2,5-Difluoro-N-{2-fluoro-3-[5-{2-[(2-methylpropyl)amino]-4-pyrimidinyl}-2-(tetrahydro-2H-pyran-4-yl)-1,3-thiazol-4-yl]phenyl}benzenesulfonamide]
- IC50 [1, 7]: < 100 nM
- IC50 [1, 4]: < 100 nM
- IC50 [2, 8]: < 100 nM
- IC50 [2, 5]: ≤ 3.16 nM
- IC50 [3, 10]: < 100 nM
- IC50 [3, 6]: < 100 nM

SMILES: Nc1nccc(-c2sc(C3CCC3)nc2-c2cccc(NS(=O)(=O)c3c(F)cccc3F)c2Cl)n1 [Example 72, N-{3-[5-(2-Amino-4-pyrimidinyl)-2-cyclobutyl-1,3-thiazol-4-yl]-2-chlorophenyl}-2,6-difluorobenzenesulfonamide]
- IC50 [1, 7]: 100 to 1000 nM
- IC50 [1, 4]: 100 to 1000 nM
- IC50 [2, 8]: < 100 nM
- IC50 [2, 5]: ≤ 3.16 nM
- IC50 [3, 10]: < 100 nM
- IC50 [3, 6]: < 100 nM

— patent US7994185B2, “Benzene sulfonamide thiazole and oxazole compounds” (Glaxo Smith Kline LLC, priority 2008, dated 2011)
